Measured values taken from patent US20190175571A1, “IMIDAZOLE DERIVATIVES AND THEIR USE IN THE TREATMENT OF AUTOIMMUNE OR INFLAMMATORY DISEASES OR CANCERS” (GLAXOSMITHKLINE INTELLECTUAL PROPERTY (NO.2) LIMITED, priority 2016, published 2019).

Columns and labels:
[1] = biological target: T1, BRD2 BD1 (Homo sapiens, UniProt P25440, Y386A); assay: TR-FRET competition assay, BRD2 BD1; format: binding; conditions: TR-FRET competition with Reference Compound X; range stated for the listed group; read-out: mean pIC50 in the BRD2 BD1 assay (converted)
T1 construct: BRD2 (1-473) (Y113A) and (Y386A); made in house; host or cells: E. coli (pET15b)

[2] = biological target: T2, BRD2 BD2 (Homo sapiens, UniProt P25440, Y113A); assay: TR-FRET competition assay, BRD2 BD2; format: binding; conditions: TR-FRET competition with Reference Compound X; range stated for the listed group; read-out: mean pIC50 in the BRD2 BD2 assay (converted)
T2 construct: BRD2 (1-473) (Y113A) and (Y386A); made in house; host or cells: E. coli (pET15b)

[3] = biological target: T3, BRDT BD1 (Homo sapiens, UniProt Q58F21, Y309A); assay: TR-FRET competition assay, BRDT BD1; format: binding; conditions: TR-FRET competition with Reference Compound X; range stated for the listed group; read-out: mean pIC50 in the BRDT BD1 assay (converted)
T3 construct: BRDT (1-397) (Y66A) and (Y309A); made in house; host or cells: E. coli (pET28a)

[4] = biological target: T4, BRDT BD2 (Homo sapiens, UniProt Q58F21, Y66A); assay: TR-FRET competition assay, BRDT BD2; format: binding; conditions: TR-FRET competition with Reference Compound X; range stated for the listed group; read-out: mean pIC50 in the BRDT BD2 assay (converted)
T4 construct: BRDT (1-397) (Y66A) and (Y309A); made in house; host or cells: E. coli (pET28a)

[5] = biological target: T5, BRD3 BD1 (Homo sapiens, UniProt Q15059, Y348A); assay: TR-FRET competition assay, BRD3 BD1; format: binding; conditions: TR-FRET competition with Reference Compound X; range stated for the listed group; read-out: mean pIC50 in the BRD3 BD1 assay (converted)
T5 construct: BRD3 (1-435) (Y73A) and (Y348A); made in house; host or cells: E. coli (pET15b)

[6] = biological target: T6, BRD3 BD2 (Homo sapiens, UniProt Q15059, Y73A); assay: TR-FRET competition assay, BRD3 BD2; format: binding; conditions: TR-FRET competition with Reference Compound X; range stated for the listed group; read-out: mean pIC50 in the BRD3 BD2 assay (converted)
T6 construct: BRD3 (1-435) (Y73A) and (Y348A); made in house; host or cells: E. coli (pET15b)

[7] = biological target: T7, BRD4 BD1 (Homo sapiens, UniProt O60885, Y390A); assay: TR-FRET competition assay, BRD4 BD1; format: binding; conditions: TR-FRET competition with Reference Compound X, single mutant tandem protein; read-out: mean pIC50 in the BRD4 BD1 assay (converted)
T7 construct: BRD4 (1-477) (Y97A) and (Y390A); made in house; host or cells: E. coli (pET15b)

[8] = biological target: T8, BRD4 BD2 (Homo sapiens, UniProt O60885, Y97A); assay: TR-FRET competition assay, BRD4 BD2; format: binding; conditions: TR-FRET competition with Reference Compound X, single mutant tandem protein; read-out: mean pIC50 in the BRD4 BD2 assay (converted)
T8 construct: BRD4 (1-477) (Y97A) and (Y390A); made in house; host or cells: E. coli (pET15b)

[9] = system: MCP-1 production; assay: LPS induced MCP-1 production from human whole blood; format: cell-based; conditions: human whole blood, LPS 200 ng/mL, 18-24 hours; read-out: mean pIC50, LPS induced MCP-1 production (converted)
[10] = system: TNP-KLH induced Immunoglobulin-1 (IgG1) production; assay: TNP-KLH induced IgG1 production mouse assay; format: in vivo; conditions: for Day 14 IgG1: male CD1 mice
[11] = system: double mutant tandem BET proteins (BRD2, BRD3, BRD4, BRDT); assay: Fluorescence Polarisation binding of Reference Compound X to mutant tandem BET proteins; parameters: species or system human

T1 sequence (P25440 1-473 Y386A): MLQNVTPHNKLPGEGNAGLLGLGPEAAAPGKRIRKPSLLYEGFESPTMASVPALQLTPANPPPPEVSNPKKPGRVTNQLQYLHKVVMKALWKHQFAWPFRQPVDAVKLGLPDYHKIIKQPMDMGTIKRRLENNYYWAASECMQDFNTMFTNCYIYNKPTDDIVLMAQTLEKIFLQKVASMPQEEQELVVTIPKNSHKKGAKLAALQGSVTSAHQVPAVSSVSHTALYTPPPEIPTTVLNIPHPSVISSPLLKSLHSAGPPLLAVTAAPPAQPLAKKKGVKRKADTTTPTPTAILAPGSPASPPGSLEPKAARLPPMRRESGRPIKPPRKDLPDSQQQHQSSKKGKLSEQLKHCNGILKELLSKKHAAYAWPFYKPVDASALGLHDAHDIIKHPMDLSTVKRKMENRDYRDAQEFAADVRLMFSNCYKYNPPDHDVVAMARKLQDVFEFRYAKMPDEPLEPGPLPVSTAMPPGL
T5 sequence (Q15059 1-435 Y348A): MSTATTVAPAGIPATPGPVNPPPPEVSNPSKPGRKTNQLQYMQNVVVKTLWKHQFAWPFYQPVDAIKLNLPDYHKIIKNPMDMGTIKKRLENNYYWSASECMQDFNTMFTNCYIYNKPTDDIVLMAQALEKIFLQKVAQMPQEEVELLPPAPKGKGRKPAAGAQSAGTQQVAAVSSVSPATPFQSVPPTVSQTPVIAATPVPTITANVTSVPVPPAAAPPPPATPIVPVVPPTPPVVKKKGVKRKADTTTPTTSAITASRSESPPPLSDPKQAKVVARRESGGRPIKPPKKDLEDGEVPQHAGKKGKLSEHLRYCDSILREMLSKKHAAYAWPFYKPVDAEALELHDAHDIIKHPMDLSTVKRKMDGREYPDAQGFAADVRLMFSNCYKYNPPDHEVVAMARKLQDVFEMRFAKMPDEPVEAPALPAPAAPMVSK
T2 sequence (P25440 1-473 Y113A): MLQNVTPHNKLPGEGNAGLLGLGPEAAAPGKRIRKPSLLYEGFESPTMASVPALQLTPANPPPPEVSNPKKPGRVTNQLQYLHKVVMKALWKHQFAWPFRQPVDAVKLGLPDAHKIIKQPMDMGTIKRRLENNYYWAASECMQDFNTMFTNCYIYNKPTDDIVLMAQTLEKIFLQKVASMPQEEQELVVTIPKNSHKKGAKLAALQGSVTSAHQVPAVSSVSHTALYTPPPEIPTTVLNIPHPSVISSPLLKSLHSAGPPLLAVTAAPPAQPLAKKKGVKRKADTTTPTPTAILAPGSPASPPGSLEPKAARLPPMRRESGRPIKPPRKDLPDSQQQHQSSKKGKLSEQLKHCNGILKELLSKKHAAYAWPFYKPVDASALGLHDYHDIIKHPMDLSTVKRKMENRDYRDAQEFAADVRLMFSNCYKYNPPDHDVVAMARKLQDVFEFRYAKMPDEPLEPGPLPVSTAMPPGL
T6 sequence (Q15059 1-435 Y73A): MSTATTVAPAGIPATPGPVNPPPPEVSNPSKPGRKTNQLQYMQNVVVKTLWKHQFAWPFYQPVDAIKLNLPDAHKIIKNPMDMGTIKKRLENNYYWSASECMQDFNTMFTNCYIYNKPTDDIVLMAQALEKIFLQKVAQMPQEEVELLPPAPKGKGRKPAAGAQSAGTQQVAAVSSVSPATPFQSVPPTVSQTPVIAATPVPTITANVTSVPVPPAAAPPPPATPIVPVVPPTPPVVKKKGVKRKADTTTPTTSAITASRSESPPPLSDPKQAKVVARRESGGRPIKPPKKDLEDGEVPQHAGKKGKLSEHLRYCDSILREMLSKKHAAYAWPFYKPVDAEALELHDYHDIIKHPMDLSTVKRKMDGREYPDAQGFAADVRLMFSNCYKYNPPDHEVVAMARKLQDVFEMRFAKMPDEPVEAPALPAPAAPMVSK

SMILES | IC50 [1] | IC50 [2] | IC50 [3] | IC50 [4] | also measured
Cc1cc(-c2nccn2CC2CCCCO2)cn(C)c1=O (racemic) [Example 7, rac-1,3-dimethyl-5-(1-((tetrahydro-2H-pyran-2-yl)methyl)-1H-imidazol-2-yl)pyridin-2(1H)-one] | 0.0126 to 7.94 µM | 1 to 50.1 µM | 0.0398 to 12.6 µM | 2 to 25.1 µM | 
Cc1cc(-c2ncc[nH]2)cn(C)c1=O [Example 1, 5-(1H-imidazol-2-yl)-1,3-dimethylpyridin-2(1H)-one] | 0.0126 to 7.94 µM | 1 to 50.1 µM | 0.0398 to 12.6 µM | > 50.1 µM | 
Cc1cc(-c2nccn2CC2CC2)cn(C)c1=O [Example 3, 5-(1-(cyclopropylmethyl)-1H-imidazol-2-yl)-1,3-dimethylpyridin-2(1H)-one] | 0.0126 to 7.94 µM | 1 to 50.1 µM | 0.0398 to 12.6 µM | 2 to 25.1 µM | 
Cc1cc(-c2nccn2CC(C)C)cn(C)c1=O [Example 5, 5-(1-isobutyl-1H-imidazol-2-yl)-1,3-dimethylpyridin-2(1H)-one] | 0.0126 to 7.94 µM | 1 to 50.1 µM | 0.0398 to 12.6 µM | 2 to 25.1 µM | 
Cc1cc(-c2nccn2CC2CCOCC2)cn(C)c1=O [Example 6, 1,3-dimethyl-5-(1-((tetrahydro-2H-pyran-4-yl)methyl)-1H-imidazol-2-yl)pyridin-2(1H)-one] | 0.0126 to 7.94 µM | 1 to 50.1 µM | 0.0398 to 12.6 µM | 2 to 25.1 µM | 
COCC(COC)n1cc(Cl)nc1-c1cc(C)c(=O)n(C)c1 [Example 22, 5-(4-chloro-1-(1,3-dimethoxypropan-2-yl)-1H-imidazol-2-yl)-1,3-dimethylpyridin-2(1H)-one] |  |  |  |  | IC50 [7]: 0.0501 µM; IC50 [8]: 2 µM; IC50 [9]: 0.1 µM
Cc1cc(-c2nc(Cl)cn2CC2CCOCC2)cn(C)c1=O [Example 30, 5-(4-chloro-1-((tetrahydro-2H-pyran-4-yl)methyl)-1H-imidazol-2-yl)-1,3-dimethylpyridin-2(1H)-one] |  |  |  |  | IC50 [5]: 0.02 to 0.0794 µM; % reduction in IgG1 from vehicle ([10]; day 14, 1.5 mg/kg BID oral): 0%; % reduction in IgG1 from vehicle ([10]; day 14, 5.0 mg/kg BID oral, ***P<0.01): 86*** %; % reduction in IgG1 from vehicle ([10]; day 14, 15 mg/kg BID oral, ***P<0.01): 99*** %; Day 14 IgG1 ([10]; 1.5 mg/kg BID oral, 14 days): 5.01 ± 3.30 µg/mL; Day 14 IgG1 ([10]; 5.0 mg/kg BID oral, 14 days): 0.85 ± 1.18 µg/mL; Day 14 IgG1 ([10]; 15 mg/kg BID oral, 14 days): 0.03 ± 0.03 µg/mL; adverse side effects during in life phase ([10]; male CD1 mice, 1.5, 5 or 15 mg/kg BID oral, 14 days): No adverse side effects were observed
Cc1cc(-c2nc(C(=O)O)cn2CC2CCOCC2)cn(C)c1=O [Example 35, 2-(1,5-dimethyl-6-oxo-1,6-dihydropyridin-3-yl)-1-((tetrahydro-2H-pyran-4-yl)methyl)-1H-imidazole-4-carboxylic acid] |  |  |  |  | IC50 [9]: > 20 µM
COc1ccc2c(c1)C(c1ccc(Cl)cc1)=N[C@@H](CC(=O)NCCCCCNC(=O)CCCCCC1(C)/C(=C/C=C/C=C/C3=[N+](CCCCS(=O)(=O)O)c4ccc(S(=O)(=O)O)cc4C3(C)C)N(CCCCS(=O)(=O)[O-])c3ccc(S(=O)(=O)O)cc31)c1nnc(C)n1-2 (stereo partly drawn) [Reference Compound X] |  |  |  |  | reduction in Kd versus non mutated, wild type tandem BET proteins [11]: > 1000 fold

Now from value to molecule, other results behind:

IC50 [1] | IC50 [2] | IC50 [3] | IC50 [4] | SMILES | also measured
0.0126 to 7.94 µM | 1 to 50.1 µM | 0.0398 to 12.6 µM | 2 to 25.1 µM | CC(=O)N1CCCC(Cn2cc(Cl)nc2-c2cc(C)c(=O)n(C)c2)C1 (single isomer, unassigned) [Example 25, 5-(1-((1-acetylpiperidin-3-yl)methyl)-4-chloro-1H-imidazol-2-yl)-1,3-dimethylpyridin-2(1H)-one] | IC50 [5]: 0.02 to 0.0794 µM; IC50 [6]: 0.251 to 1 µM
0.0126 to 7.94 µM | 1 to 50.1 µM | 0.0398 to 12.6 µM | 2 to 25.1 µM | Cc1cc(-c2nc(Cl)cn2CC2CCCOC2)cn(C)c1=O (single isomer, unassigned) [Example 29, 5-(4-chloro-1-((tetrahydro-2H-pyran-3-yl)methyl)-1H-imidazol-2-yl)-1,3-dimethylpyridin-2(1H)-one] | IC50 [5]: 0.02 to 0.0794 µM; IC50 [6]: 0.251 to 1 µM
